According to PubChem BioAssay AID378:

Molecular target: L-aminoadipate-semialdehyde dehydrogenase-phosphopantetheinyl transferase (Homo sapiens) (UniProt Q9NRN7)
Test: PubChem AID 378
Conditions: purified protein DSF, SYPRO orange Tm shift, at 10 µM, protein 2 µM, pH 5.5, hits give high values
[1] = buffer 10 mM NaHPO4, with 150 mM NaCl, 2 mM MgCl2
[2] = buffer 10 mM NaH2PO4, NaCl 150 mM, MgCl2 2000 µM

L-aminoadipate-semialdehyde dehydrogenase-phosphopantetheinyl transferase (Homo sapiens), sequence (Q9NRN7 whole entry, looked up): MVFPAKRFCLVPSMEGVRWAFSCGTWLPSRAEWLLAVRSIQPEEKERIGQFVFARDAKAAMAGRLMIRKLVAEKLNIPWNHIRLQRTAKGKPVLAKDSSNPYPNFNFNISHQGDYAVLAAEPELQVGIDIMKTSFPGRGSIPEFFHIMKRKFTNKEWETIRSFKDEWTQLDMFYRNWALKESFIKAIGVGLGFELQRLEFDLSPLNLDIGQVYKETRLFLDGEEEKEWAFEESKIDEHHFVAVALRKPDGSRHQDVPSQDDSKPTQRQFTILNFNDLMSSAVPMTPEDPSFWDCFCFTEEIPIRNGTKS

| Compound | Tm shift [1] [Celsius] | Tm shift [2] [Celsius] |
| --- | --- | --- |
| O=[P+](O)C(O)(Cc1cccnc1)P(=O)(O)O (centres undefined) | 4.4 | – |
| CC(O)CC(=O)SCCNC(=O)CCNC(=O)C(O)C(C)(C)COP(=O)(O)OP(=O)(O)OCC1OC(n2cnc3c(N)ncnc32)C(O)C1OP(=O)(O)O (centres undefined) | – | 3.1 |
| CC(C)(COP(=O)(O)OP(=O)(O)OCC1OC(n2cnc3c(N)ncnc32)C(O)C1OP(=O)(O)O)C(O)C(=O)NCCC(=O)NCCS (centres undefined) | – | 2.9 |
| O=P(O)(O)C(O)(Cn1ccnc1)P(=O)(O)O | 5.2 | – |
